Key:
Assay in all cases: Kinase panel study
Format in all cases: biochemical
Conditions in all cases: read-out: Percentage of inhibition; for inhibition at 1 µM: 1000nM; for inhibition at 10 µM: 10000nM
PIK3C3 (hVPS34) = molecular target: T1, PIK3C3 (hVPS34) (Homo sapiens, UniProt Q8NEB9)
T1 construct: purchased Thermo Fisher Scientific
In short: (§1)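 Lead compounds and derivatives were profiled by ZLyte or Adapta in vitro kinase assays. Each value reports inhibition percentage at one of two concentrations, 1 µM or 10 µM.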

LTK (TYK1) = molecular target: T2, LTK (TYK1) (Homo sapiens, UniProt P29376)
T2 construct: purchased Thermo Fisher Scientific
In short: as §1

PRKG2 (PKG2) = molecular target: T3, PRKG2 (PKG2) (Homo sapiens, UniProt Q13237)
T3 construct: purchased Thermo Fisher Scientific
T3 sequence (Q13237 1-762): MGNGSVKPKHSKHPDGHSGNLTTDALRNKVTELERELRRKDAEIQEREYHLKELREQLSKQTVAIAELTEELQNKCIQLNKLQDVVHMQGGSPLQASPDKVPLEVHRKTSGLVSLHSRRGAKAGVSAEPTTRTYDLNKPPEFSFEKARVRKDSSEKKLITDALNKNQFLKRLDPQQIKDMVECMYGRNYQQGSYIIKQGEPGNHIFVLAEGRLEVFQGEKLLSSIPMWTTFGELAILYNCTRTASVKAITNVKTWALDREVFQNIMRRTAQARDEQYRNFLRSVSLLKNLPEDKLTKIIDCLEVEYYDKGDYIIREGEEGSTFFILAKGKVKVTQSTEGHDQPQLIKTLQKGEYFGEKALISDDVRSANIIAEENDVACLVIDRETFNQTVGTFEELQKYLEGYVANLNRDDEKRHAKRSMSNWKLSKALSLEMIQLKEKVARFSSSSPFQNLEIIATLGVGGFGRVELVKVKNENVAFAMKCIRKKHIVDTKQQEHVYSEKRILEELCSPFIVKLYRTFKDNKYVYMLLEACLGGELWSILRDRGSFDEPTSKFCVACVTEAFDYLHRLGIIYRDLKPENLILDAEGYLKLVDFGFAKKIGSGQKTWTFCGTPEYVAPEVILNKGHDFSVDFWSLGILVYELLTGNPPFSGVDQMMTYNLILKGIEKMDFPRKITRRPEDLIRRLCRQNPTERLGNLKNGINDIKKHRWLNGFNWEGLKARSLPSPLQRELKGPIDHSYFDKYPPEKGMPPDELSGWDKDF
In short: as §1

AMPK (A2/B1/G3) = molecular target: T4, AMPK (A2/B1/G3) (Homo sapiens, UniProt P54646)
T4 construct: purchased Thermo Fisher Scientific
In short: as §1

LRRK2 I2020T = molecular target: T5, LRRK2 I2020T (Homo sapiens, UniProt Q5S007, I2020T)
T5 construct: purchased Thermo Fisher Scientific
In short: as §1

LRRK2 G2019S = molecular target: T6, LRRK2 G2019S (Homo sapiens, UniProt Q5S007, G2019S)
T6 construct: purchased Thermo Fisher Scientific
In short: as §1

MAP4K5 (KHS1) = molecular target: T7, MAP4K5 (KHS1) (Homo sapiens, UniProt Q9Y4K4)
T7 construct: purchased Thermo Fisher Scientific
In short: as §1

SGKL (SGK3) = molecular target: T8, SGKL (SGK3) (Homo sapiens, UniProt Q96BR1)
T8 construct: purchased Thermo Fisher Scientific
T8 sequence (Q96BR1 1-496): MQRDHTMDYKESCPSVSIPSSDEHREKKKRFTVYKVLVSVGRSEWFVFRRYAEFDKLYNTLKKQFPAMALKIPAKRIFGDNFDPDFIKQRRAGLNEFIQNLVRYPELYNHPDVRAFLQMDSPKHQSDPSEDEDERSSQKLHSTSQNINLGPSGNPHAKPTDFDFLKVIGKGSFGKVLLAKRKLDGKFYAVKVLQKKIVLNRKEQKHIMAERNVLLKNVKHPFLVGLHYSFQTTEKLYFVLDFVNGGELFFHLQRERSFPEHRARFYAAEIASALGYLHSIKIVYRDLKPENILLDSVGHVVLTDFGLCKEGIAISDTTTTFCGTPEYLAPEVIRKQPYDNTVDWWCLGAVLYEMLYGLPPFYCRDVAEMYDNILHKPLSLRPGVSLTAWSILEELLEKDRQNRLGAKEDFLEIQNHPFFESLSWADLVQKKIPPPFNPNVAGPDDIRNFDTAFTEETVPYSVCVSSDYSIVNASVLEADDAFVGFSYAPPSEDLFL
In short: as §1

T2 sequence (P29376 17-864): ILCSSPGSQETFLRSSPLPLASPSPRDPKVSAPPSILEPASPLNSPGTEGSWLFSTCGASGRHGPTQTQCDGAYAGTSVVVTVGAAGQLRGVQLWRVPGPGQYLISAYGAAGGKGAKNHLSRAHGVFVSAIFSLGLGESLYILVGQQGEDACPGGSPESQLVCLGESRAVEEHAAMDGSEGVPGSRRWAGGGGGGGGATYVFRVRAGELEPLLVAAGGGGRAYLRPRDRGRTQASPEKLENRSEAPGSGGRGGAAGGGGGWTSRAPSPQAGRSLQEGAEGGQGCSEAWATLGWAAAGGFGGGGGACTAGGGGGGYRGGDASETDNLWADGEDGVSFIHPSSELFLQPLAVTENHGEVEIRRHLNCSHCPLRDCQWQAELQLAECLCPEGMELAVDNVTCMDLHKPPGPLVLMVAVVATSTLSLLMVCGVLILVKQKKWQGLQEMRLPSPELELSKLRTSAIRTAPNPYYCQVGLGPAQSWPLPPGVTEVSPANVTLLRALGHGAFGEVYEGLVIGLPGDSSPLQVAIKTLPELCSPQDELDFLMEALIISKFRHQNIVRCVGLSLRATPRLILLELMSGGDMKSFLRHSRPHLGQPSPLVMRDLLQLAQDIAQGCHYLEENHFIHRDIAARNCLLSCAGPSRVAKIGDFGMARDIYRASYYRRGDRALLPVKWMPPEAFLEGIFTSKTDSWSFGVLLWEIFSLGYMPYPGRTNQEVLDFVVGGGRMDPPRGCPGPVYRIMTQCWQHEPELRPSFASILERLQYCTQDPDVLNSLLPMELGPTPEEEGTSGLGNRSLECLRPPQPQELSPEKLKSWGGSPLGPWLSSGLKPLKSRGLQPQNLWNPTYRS
T1 sequence (Q8NEB9 whole entry): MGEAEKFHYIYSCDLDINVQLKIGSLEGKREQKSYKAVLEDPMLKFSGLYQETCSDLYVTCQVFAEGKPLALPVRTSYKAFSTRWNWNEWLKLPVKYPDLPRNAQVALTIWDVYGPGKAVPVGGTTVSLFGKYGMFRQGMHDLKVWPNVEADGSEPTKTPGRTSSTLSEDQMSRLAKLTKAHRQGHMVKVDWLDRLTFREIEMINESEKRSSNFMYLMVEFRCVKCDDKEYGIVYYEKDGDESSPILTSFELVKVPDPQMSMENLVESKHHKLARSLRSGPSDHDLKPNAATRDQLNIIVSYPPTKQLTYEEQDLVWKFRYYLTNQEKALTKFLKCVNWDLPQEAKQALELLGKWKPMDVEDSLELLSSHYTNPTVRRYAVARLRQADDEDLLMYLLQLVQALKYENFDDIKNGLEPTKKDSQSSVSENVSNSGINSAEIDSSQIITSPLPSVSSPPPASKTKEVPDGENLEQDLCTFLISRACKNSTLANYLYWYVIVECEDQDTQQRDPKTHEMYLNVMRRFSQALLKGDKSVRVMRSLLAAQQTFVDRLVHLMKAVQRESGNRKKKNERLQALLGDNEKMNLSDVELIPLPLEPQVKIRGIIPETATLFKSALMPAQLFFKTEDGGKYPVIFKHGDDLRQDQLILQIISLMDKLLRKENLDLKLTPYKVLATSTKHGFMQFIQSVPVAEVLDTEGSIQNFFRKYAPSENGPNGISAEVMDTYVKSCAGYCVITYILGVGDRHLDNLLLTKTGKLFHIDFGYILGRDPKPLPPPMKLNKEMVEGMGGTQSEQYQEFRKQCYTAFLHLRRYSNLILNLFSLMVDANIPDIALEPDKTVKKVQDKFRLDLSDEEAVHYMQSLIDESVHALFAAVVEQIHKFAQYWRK
T4 sequence (P54646 whole entry): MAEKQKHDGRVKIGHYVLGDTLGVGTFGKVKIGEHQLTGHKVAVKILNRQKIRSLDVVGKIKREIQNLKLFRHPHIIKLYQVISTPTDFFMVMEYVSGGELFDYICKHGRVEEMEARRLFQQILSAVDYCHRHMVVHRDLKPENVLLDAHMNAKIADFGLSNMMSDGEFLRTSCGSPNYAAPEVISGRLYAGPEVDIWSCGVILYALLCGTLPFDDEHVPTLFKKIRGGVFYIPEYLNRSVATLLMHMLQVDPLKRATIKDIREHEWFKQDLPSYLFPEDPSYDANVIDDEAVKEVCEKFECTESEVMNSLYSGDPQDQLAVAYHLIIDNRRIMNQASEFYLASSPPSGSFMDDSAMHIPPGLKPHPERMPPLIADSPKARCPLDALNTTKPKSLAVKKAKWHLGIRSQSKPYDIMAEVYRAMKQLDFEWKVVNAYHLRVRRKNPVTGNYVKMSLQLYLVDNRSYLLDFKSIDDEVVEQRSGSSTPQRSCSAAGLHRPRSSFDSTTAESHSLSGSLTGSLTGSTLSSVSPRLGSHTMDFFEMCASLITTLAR
T4 sequence (Q9Y478 whole entry partner): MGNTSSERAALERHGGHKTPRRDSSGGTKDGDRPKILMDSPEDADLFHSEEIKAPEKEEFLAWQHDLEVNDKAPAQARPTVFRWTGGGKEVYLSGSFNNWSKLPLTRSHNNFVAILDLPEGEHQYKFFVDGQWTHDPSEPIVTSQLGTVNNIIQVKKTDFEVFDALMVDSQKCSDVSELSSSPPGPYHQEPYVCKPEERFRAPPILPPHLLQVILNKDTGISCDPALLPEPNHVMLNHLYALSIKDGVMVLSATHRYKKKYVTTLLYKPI
T4 sequence (Q9UGI9 whole entry partner): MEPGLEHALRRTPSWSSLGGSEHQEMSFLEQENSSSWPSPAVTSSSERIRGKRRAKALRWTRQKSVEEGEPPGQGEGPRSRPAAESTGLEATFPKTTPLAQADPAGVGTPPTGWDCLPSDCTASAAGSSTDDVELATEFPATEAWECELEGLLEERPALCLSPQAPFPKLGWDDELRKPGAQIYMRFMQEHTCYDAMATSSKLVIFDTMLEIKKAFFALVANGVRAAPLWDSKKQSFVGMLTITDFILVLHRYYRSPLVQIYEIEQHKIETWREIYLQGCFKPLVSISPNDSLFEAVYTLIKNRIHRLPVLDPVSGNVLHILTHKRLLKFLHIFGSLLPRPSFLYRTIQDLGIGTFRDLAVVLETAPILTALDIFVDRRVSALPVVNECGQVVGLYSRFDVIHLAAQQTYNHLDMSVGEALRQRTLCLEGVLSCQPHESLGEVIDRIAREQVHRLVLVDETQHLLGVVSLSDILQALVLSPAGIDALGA
T5 sequence (Q5S007 970-2527 I2020T limits assumed): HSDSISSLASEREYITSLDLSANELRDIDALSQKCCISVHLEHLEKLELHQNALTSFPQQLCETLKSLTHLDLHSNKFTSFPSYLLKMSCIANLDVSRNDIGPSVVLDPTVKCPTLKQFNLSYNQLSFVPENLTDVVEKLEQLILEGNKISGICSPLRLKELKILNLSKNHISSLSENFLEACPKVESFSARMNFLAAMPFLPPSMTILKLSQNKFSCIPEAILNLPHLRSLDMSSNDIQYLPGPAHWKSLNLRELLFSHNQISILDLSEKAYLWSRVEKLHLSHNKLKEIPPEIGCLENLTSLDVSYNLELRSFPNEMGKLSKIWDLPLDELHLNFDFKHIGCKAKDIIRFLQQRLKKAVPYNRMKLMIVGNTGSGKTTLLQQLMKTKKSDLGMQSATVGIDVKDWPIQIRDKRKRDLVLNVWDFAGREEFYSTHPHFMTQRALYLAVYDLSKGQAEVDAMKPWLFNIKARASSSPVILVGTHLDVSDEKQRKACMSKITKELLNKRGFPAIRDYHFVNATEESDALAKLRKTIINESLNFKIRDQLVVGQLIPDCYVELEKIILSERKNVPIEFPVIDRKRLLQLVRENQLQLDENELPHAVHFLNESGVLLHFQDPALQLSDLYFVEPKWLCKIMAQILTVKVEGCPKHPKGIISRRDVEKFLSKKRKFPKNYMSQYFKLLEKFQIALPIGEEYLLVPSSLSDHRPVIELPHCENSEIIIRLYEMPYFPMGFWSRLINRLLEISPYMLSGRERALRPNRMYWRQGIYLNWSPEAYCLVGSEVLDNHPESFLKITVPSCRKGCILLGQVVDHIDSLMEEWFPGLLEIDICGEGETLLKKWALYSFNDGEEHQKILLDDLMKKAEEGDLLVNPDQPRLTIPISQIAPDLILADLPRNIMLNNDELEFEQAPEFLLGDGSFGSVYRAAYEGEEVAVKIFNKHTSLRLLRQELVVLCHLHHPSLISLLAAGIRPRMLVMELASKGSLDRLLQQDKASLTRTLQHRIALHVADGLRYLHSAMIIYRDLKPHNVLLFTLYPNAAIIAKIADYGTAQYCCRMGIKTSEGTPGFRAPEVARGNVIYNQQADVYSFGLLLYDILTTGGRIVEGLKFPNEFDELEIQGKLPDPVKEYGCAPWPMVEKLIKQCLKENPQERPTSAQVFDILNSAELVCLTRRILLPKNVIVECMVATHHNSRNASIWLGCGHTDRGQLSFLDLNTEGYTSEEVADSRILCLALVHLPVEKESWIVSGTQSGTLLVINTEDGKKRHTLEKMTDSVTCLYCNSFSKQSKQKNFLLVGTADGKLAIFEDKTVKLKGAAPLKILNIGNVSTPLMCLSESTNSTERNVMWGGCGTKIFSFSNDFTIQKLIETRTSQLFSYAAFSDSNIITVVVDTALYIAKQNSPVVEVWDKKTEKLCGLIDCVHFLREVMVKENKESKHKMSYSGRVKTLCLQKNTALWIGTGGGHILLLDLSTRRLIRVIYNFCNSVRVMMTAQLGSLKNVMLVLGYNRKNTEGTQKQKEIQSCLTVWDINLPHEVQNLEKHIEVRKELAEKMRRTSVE
T6 sequence (Q5S007 970-2527 G2019S limits assumed): as the sequence (Q5S007 970-2527 I2020T limits assumed) above, with G1050S, T1051I counted along it

COc1ccc2c(c1OC)c(=O)n1c3ccc(O)cc3c3ccnc2c31 [MW01, 5-Hydroxy-10,11-dimethoxy-9H-benzo[c]indolo[3,2,1-ij][1,5]naphthyridin-9-one]
inhibition at 1 µM (PIK3C3 (hVPS34)): 23% | inhibition at 10 µM (PIK3C3 (hVPS34)): 49% | inhibition at 1 µM (LTK (TYK1)): 19% | inhibition at 10 µM (LTK (TYK1)): 44% | inhibition at 1 µM (PRKG2 (PKG2)): 47% | inhibition at 10 µM (PRKG2 (PKG2)): 72% | inhibition at 1 µM (AMPK (A2/B1/G3)): -2% | inhibition at 10 µM (AMPK (A2/B1/G3)): 12% | inhibition at 1 µM (LRRK2 I2020T): 83% | inhibition at 10 µM (LRRK2 I2020T): 90% | inhibition at 1 µM (LRRK2 G2019S): 90% | inhibition at 10 µM (LRRK2 G2019S): 93% | inhibition at 1 µM (MAP4K5 (KHS1)): 39% | inhibition at 10 µM (MAP4K5 (KHS1)): 68% | inhibition at 1 µM (SGKL (SGK3)): 12% | inhibition at 10 µM (SGKL (SGK3)): 10%

COc1ccc2cc3c(N)nn(C(=O)c4cccc(N(C)C)c4)c3nc2c1 [MW05, (3-Amino-7-methoxypyrazolo[3,4-b]quinolin-1-yl)-[3-(dimethylamino)phenyl]methanone]
inhibition at 1 µM (PIK3C3 (hVPS34)): 4% | inhibition at 10 µM (PIK3C3 (hVPS34)): 4% | inhibition at 1 µM (LTK (TYK1)): 7% | inhibition at 10 µM (LTK (TYK1)): -9% | inhibition at 1 µM (PRKG2 (PKG2)): 7% | inhibition at 10 µM (PRKG2 (PKG2)): 0% | inhibition at 1 µM (AMPK (A2/B1/G3)): 0% | inhibition at 10 µM (AMPK (A2/B1/G3)): -3% | inhibition at 1 µM (LRRK2 I2020T): -3% | inhibition at 10 µM (LRRK2 I2020T): 5% | inhibition at 1 µM (LRRK2 G2019S): -2% | inhibition at 10 µM (LRRK2 G2019S): 16% | inhibition at 1 µM (MAP4K5 (KHS1)): 15% | inhibition at 10 µM (MAP4K5 (KHS1)): 4% | inhibition at 1 µM (SGKL (SGK3)): 8% | inhibition at 10 µM (SGKL (SGK3)): 6%

From EP4467141A1, “PYRAZOLO-QUINOLINES AS SELECTIVE INHIBITORS OF GENOTOXIC STRESS-INDUCED IKK/NF- KB PATHWAYS FOR CANCER THERAPY” (Max-Delbrück-Centrum für Molekulare Medizin in der …, priority 2023, dated 2024)
